Measured values: PubChem BioAssay AID1918944 (Molecular Pharmacology Branch, DTP, NCI, 2023)
Several values for one entry are separate records, joined by “and”; a condition that tells them apart may be missing. Equal entries are not always repeated. Blank lines part the entries; values can stand above or below the compound they belong to.

Test system: 786-0 complex spheroid viability
Test: Anticancer human tumor 786-0 cell line growth inhibition;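 also: spheroids exposed to agents for seven days before readout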
Details: for viability, T/C: stronger effect = lower value
Outline: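 Complex spheroids of tumor cells with HUVEC and human MSCs, exposed to iadademstat combined with other agents. Each agent tested in half-log steps from near clinical Cmax (else 10 microM top), DMSO ≤0.25%.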

[1] = curve of first compound, second compound 0.1 µM
[2] = curve of first compound, second compound 0.316 µM
[3] = curve of first compound, second compound 1 µM
[4] = curve of first compound, second compound 3.16 µM
[5] = curve of first compound, second compound 10 µM
[6] = second compound 0.1 µM, first compound 0.000316 µM
[7] = second compound 0.1 µM, first compound 0.001 µM
[8] = second compound 0.1 µM, first compound 0.00316 µM
[9] = second compound 0.1 µM, first compound 0.01 µM
[10] = second compound 0.1 µM, first compound 0.0316 µM
[11] = second compound 0.1 µM, first compound 0.1 µM
[12] = second compound 0.316 µM, first compound 0.000316 µM
[13] = second compound 0.316 µM, first compound 0.001 µM
[14] = second compound 0.316 µM, first compound 0.00316 µM
[15] = second compound 0.316 µM, first compound 0.01 µM
[16] = second compound 0.316 µM, first compound 0.0316 µM
[17] = second compound 0.316 µM, first compound 0.1 µM
[18] = second compound 1 µM, first compound 0.000316 µM
[19] = second compound 1 µM, first compound 0.001 µM
[20] = second compound 1 µM, first compound 0.00316 µM
[21] = second compound 1 µM, first compound 0.01 µM
[22] = second compound 1 µM, first compound 0.0316 µM
[23] = second compound 1 µM, first compound 0.1 µM
[24] = second compound 3.16 µM, first compound 0.000316 µM
[25] = second compound 3.16 µM, first compound 0.001 µM
[26] = second compound 3.16 µM, first compound 0.00316 µM
[27] = second compound 3.16 µM, first compound 0.01 µM
[28] = second compound 3.16 µM, first compound 0.0316 µM
[29] = second compound 3.16 µM, first compound 0.1 µM
[30] = second compound 10 µM, first compound 0.000316 µM
[31] = second compound 10 µM, first compound 0.001 µM
[32] = second compound 10 µM, first compound 0.00316 µM
[33] = second compound 10 µM, first compound 0.01 µM
[34] = second compound 10 µM, first compound 0.0316 µM
[35] = second compound 10 µM, first compound 0.1 µM
[36] = second compound 0.1 µM, first compound 0.00949 µM
[37] = second compound 0.1 µM, first compound 0.03 µM
[38] = second compound 0.1 µM, first compound 0.0949 µM
[39] = second compound 0.1 µM, first compound 0.3 µM
[40] = second compound 0.1 µM, first compound 0.949 µM
[41] = second compound 0.1 µM, first compound 3 µM
[42] = second compound 0.316 µM, first compound 0.00949 µM
[43] = second compound 0.316 µM, first compound 0.03 µM
[44] = second compound 0.316 µM, first compound 0.0949 µM
[45] = second compound 0.316 µM, first compound 0.3 µM
[46] = second compound 0.316 µM, first compound 0.949 µM
[47] = second compound 0.316 µM, first compound 3 µM
[48] = second compound 1 µM, first compound 0.00949 µM
[49] = second compound 1 µM, first compound 0.03 µM
[50] = second compound 1 µM, first compound 0.0949 µM
[51] = second compound 1 µM, first compound 0.3 µM
[52] = second compound 1 µM, first compound 0.949 µM
[53] = second compound 1 µM, first compound 3 µM
[54] = second compound 3.16 µM, first compound 0.00949 µM
[55] = second compound 3.16 µM, first compound 0.03 µM
[56] = second compound 3.16 µM, first compound 0.0949 µM
[57] = second compound 3.16 µM, first compound 0.3 µM
[58] = second compound 3.16 µM, first compound 0.949 µM
[59] = second compound 3.16 µM, first compound 3 µM
[60] = second compound 10 µM, first compound 0.00949 µM
[61] = second compound 10 µM, first compound 0.03 µM
[62] = second compound 10 µM, first compound 0.0949 µM
[63] = second compound 10 µM, first compound 0.3 µM
[64] = second compound 10 µM, first compound 0.949 µM
[65] = second compound 10 µM, first compound 3 µM

IC50 (curve of compound): 40 nM and 49.3 nM
Compound: CC1COCCN1c1cc(-c2ccnn2C)c2ccnc(-c3ccn[nH]3)c2n1 (centres undefined)
viability, T/C (compound 0.00316 µM): 101% and 93.8%
viability, T/C (compound 0.01 µM): 95.2% and 97.4%
viability, T/C (compound 0.0316 µM): 56.1% and 64.5%
viability, T/C (compound 0.1 µM): 23.4% and 27.1%
viability, T/C (compound 0.316 µM): 11.3% and 22.2%
viability, T/C (compound 1 µM): 12.7% and 18%

Compound: CC(C)CC(NC(=O)CNC(=O)c1cc(Cl)ccc1Cl)B1OC(=O)CC(CC(=O)O)(C(=O)O)O1 (centres undefined) + NC1CCC(NC2CC2c2ccccc2)CC1
IC50 [1]: 12.9 nM
IC50 [2]: 10.7 nM
IC50 [3]: 12 nM
IC50 [4]: 9.62 nM
IC50 [5]: 10.2 nM
viability, T/C [6]: 127%
viability, T/C [7]: 123%
viability, T/C [8]: 110%
viability, T/C [9]: 52.4%
viability, T/C [10]: 32.4%
viability, T/C [11]: 9.25%
viability, T/C [12]: 129%
viability, T/C [13]: 130%
viability, T/C [14]: 121%
viability, T/C [15]: 51.6%
viability, T/C [16]: 30.7%
viability, T/C [17]: 8.11%
viability, T/C [18]: 113%
viability, T/C [19]: 128%
viability, T/C [20]: 112%
viability, T/C [21]: 52.3%
viability, T/C [22]: 34.1%
viability, T/C [23]: 10%
viability, T/C [24]: 109%
viability, T/C [25]: 112%
viability, T/C [26]: 107%
viability, T/C [27]: 46.7%
viability, T/C [28]: 29.5%
viability, T/C [29]: 9.53%
viability, T/C [30]: 96.8%
viability, T/C [31]: 91.4%
viability, T/C [32]: 82.1%
viability, T/C [33]: 50.1%
viability, T/C [34]: 19.7%
viability, T/C [35]: 7.29%

Compound: CCN(c1cc(-c2ccc(CN3CCOCC3)cc2)cc(C(=O)NCc2c(C)cc(C)[nH]c2=O)c1C)C1CCOCC1 + NC1CC1c1ccc(-c2cccc(O)c2)cc1
IC50 [1]: > 3000 nM
IC50 [2]: > 3000 nM
IC50 [3]: > 3000 nM
IC50 [4]: > 3000 nM
IC50 [5]: > 3000 nM
viability, T/C [36]: 99.5%
viability, T/C [37]: 101%
viability, T/C [38]: 98.7%
viability, T/C [39]: 94.3%
viability, T/C [40]: 95.7%
viability, T/C [41]: 96.2%
viability, T/C [42]: 104%
viability, T/C [43]: 105%
viability, T/C [44]: 107%
viability, T/C [45]: 103%
viability, T/C [46]: 97.6%
viability, T/C [47]: 94.8%
viability, T/C [48]: 98.8%
viability, T/C [49]: 101%
viability, T/C [50]: 99.3%
viability, T/C [51]: 102%
viability, T/C [52]: 84.8%
viability, T/C [53]: 86%
viability, T/C [54]: 88.6%
viability, T/C [55]: 97.7%
viability, T/C [56]: 95.3%
viability, T/C [57]: 96.8%
viability, T/C [58]: 84.4%
viability, T/C [59]: 86.3%
viability, T/C [60]: 87.8%
viability, T/C [61]: 87%
viability, T/C [62]: 85.5%
viability, T/C [63]: 87.3%
viability, T/C [64]: 80.4%
viability, T/C [65]: 83%

Compound: CC[C@@]1(O)C(=O)OCc2c1cc1n(c2=O)Cc2cc3c(CN(C)C)c(O)ccc3nc2-1 + NC1CCC(NC2CC2c2ccccc2)CC1
IC50 [1]: 5.11 nM
IC50 [2]: 5.13 nM
IC50 [3]: 5.2 nM
IC50 [4]: 4.39 nM
IC50 [5]: 3.01 nM
viability, T/C [6]: 114%
viability, T/C [7]: 113%
viability, T/C [8]: 77.3%
viability, T/C [9]: 11.8%
viability, T/C [10]: 5.31%
viability, T/C [11]: 3.53%
viability, T/C [12]: 111%
viability, T/C [13]: 105%
viability, T/C [14]: 78.3%
viability, T/C [15]: 10.8%
viability, T/C [16]: 5.38%
viability, T/C [17]: 3.62%
viability, T/C [18]: 115%
viability, T/C [19]: 105%
viability, T/C [20]: 80%
viability, T/C [21]: 10.3%
viability, T/C [22]: 5.66%
viability, T/C [23]: 3.63%
viability, T/C [24]: 101%
viability, T/C [25]: 95.2%
viability, T/C [26]: 65.2%
viability, T/C [27]: 12.4%
viability, T/C [28]: 6.41%
viability, T/C [29]: 2.85%
viability, T/C [30]: 84%
viability, T/C [31]: 71.7%
viability, T/C [32]: 50.3%
viability, T/C [33]: 6.62%
viability, T/C [34]: 5.01%
viability, T/C [35]: 3.36%

Compound: COc1cc(C2c3cc4c(cc3C(OC3OC5COC(C)OC5C(O)C3O)C3COC(=O)C23)OCO4)cc(OC)c1O (centres undefined) + NC1CC1c1ccc(-c2cccc(O)c2)cc1
IC50 [1]: 212 nM
IC50 [2]: 247 nM
IC50 [3]: 174 nM
IC50 [4]: 183 nM
IC50 [5]: 162 nM
viability, T/C [36]: 96.6%
viability, T/C [37]: 88.2%
viability, T/C [38]: 63.9%
viability, T/C [39]: 42.5%
viability, T/C [40]: 26.9%
viability, T/C [41]: 12.1%
viability, T/C [42]: 105%
viability, T/C [43]: 95.8%
viability, T/C [44]: 66.2%
viability, T/C [45]: 47.1%
viability, T/C [46]: 25.8%
viability, T/C [47]: 9.93%
viability, T/C [48]: 93.1%
viability, T/C [49]: 89.4%
viability, T/C [50]: 57.9%
viability, T/C [51]: 40.2%
viability, T/C [52]: 22%
viability, T/C [53]: 10.9%
viability, T/C [54]: 90.7%
viability, T/C [55]: 82.9%
viability, T/C [56]: 59.2%
viability, T/C [57]: 43.3%
viability, T/C [58]: 20.8%
viability, T/C [59]: 10.3%
viability, T/C [60]: 80.6%
viability, T/C [61]: 76.6%
viability, T/C [62]: 54.3%
viability, T/C [63]: 42.5%
viability, T/C [64]: 22.6%
viability, T/C [65]: 8.94%

IC50 (curve of compound): > 3000 nM
Compound: CCN(c1cc(-c2ccc(CN3CCOCC3)cc2)cc(C(=O)NCc2c(C)cc(C)[nH]c2=O)c1C)C1CCOCC1
viability, T/C (compound 0.00949 µM): 100%
viability, T/C (compound 0.03 µM): 103% and 105%
viability, T/C (compound 0.0949 µM): 106% and 100%
viability, T/C (compound 0.3 µM): 104% and 102%
viability, T/C (compound 0.949 µM): 102% and 98%
viability, T/C (compound 3 µM): 97.4% and 96.9%
